According to patent publication US4332820A, “Substituted benzonitriles having antiviral activity” (The Dow Chemical Company, priority 1980, dated 1982):
≈ marks a conversion by molar mass, not a printed value.

How the values were obtained:
[1] = system: rhinovirus type 1A (RV-1A); assay: Tissue culture antiviral testing, RV-1A (cytopathic effect, HeLa cells); type: cell-based; conditions: for EC50: Enterovirus, HeLa cells, NA = not active at the standard test conditions, read-out: Lowest concentration of the compound necessary to cause a 50 percent reduction in cytopathic effect
rhinovirus type 2 (RV-2) = assay: Tissue culture antiviral testing, RV-2 (cytopathic effect, HeLa cells); type: cell-based; conditions: for EC50: Enterovirus, HeLa cells, NA = not active at the standard test conditions, read-out: Lowest concentration of the compound necessary to cause a 50 percent reduction in cytopathic effect
[2] = system: Coxsackie A21 virus (Cox A21); assay: Tissue culture antiviral testing, Cox A21 (cytopathic effect, HeLa cells); type: cell-based; conditions: for EC50: HeLa cells, NA = not active at the standard test conditions, read-out: Lowest concentration of the compound necessary to cause a 50 percent reduction in cytopathic effect
rhinovirus type 5 (RV-5) = assay: Tissue culture antiviral testing, RV-5 (cytopathic effect, HeLa cells); type: cell-based; conditions: for EC50: Enterovirus, HeLa cells, read-out: Lowest concentration of the compound necessary to cause a 50 percent reduction in cytopathic effect
rhinovirus type 8 (RV-8) = assay: Tissue culture antiviral testing, RV-8 (cytopathic effect, HeLa cells); type: cell-based; conditions: for EC50: Enterovirus, HeLa cells, read-out: Lowest concentration of the compound necessary to cause a 50 percent reduction in cytopathic effect
[3] = system: rhinovirus type 64 (RV-64); assay: Tissue culture antiviral testing, RV-64 (cytopathic effect, HeLa cells); type: cell-based; conditions: for EC50: Enterovirus, HeLa cells, NA = not active at the standard test conditions, read-out: Lowest concentration of the compound necessary to cause a 50 percent reduction in cytopathic effect
Coxsackie A21 virus = assay: Continuous Oral Feeding test in mice challenged with Coxsackie A21; type: in vivo; conditions: for X^2 (Continuous Oral Feeding, chi-square of deaths): 0.06 % in diet, 240 h, 0.06 % strength
[4] = Cytotoxicity in tissue culture (HeLa monolayers); type: cell-based; conditions: human; HeLa cells; observed at 48 and 72 hours post-treatment; read-out: Cytotoxicity (concentration of the compound found to be toxic to the cell)
Cox A21 = assay: Single Oral Dose test in mice challenged with Cox A21; type: in vivo, Swiss male mice; conditions: po, 600 mg/kg, 3 h

| Structure (SMILES) | MCC [4] | EC50 (rhinovirus type 2 (RV-2)) | EC50 [2] | EC50 [1] | EC50 (rhinovirus type 5 (RV-5)) | EC50 (rhinovirus type 8 (RV-8)) | EC50 [3] | also measured |
| --- | --- | --- | --- | --- | --- | --- | --- | --- |
| N#Cc1cc(Oc2ccc(Cl)c(Cl)c2)ccc1[N+](=O)[O-] [5-(3,4-dichlorophenoxy)-2-nitrobenzonitrile, reference compound] |  |  |  |  |  |  |  | concentration required to produce a 50% reduction in cytopathic effect, compared with 2-(3,4-dichlorophenoxy)-5-nitrobenzonitrile ([1]; in words): higher concentrations; concentration required to produce a 50% reduction in cytopathic effect, compared with 2-(3,4-dichlorophenoxy)-5-nitrobenzonitrile (rhinovirus type 2 (RV-2); in words): higher concentrations; concentration required to produce a 50% reduction in cytopathic effect, compared with 2-(3,4-dichlorophenoxy)-5-nitrobenzonitrile ([2]; in words): higher concentrations; antiviral activity at the test concentrations employed (rhinovirus type 5 (RV-5); in words): not active; antiviral activity at the test concentrations employed (rhinovirus type 8 (RV-8); in words): not active; antiviral activity at the test concentrations employed ([3]; in words): not active; antiviral activity in the "Continuous Oral Feeding" test (Coxsackie A21 virus; in words, 95% confidence level): failed to exhibit antiviral activity |
| N#Cc1cc([N+](=O)[O-])ccc1Oc1ccc(Oc2ccccc2)cc1 [Example 5, 2-(4-Phenoxyphenoxy)-5-nitrobenzonitrile] | > 100 µg/mL | 50 µg/mL (≈ 150 µM) | < 6.25 µg/mL |  |  |  |  | X^2 (Single Oral Dose, chi-square of deaths vs virus control) (Cox A21): 0.719; X^2 (Continuous Oral Feeding, chi-square of deaths) (Coxsackie A21 virus): 0.26 |
| CN(C)S(=O)(=O)c1ccc(Oc2ccc([N+](=O)[O-])cc2C#N)cc1 [Example 9, N,N-Dimethyl-4-(2-cyano-4-nitrophenoxy)benzenesulfonamide] | > 100 µg/mL |  | < 6.25 µg/mL |  |  |  |  | X^2 (Continuous Oral Feeding, chi-square of deaths) (Coxsackie A21 virus): 9.03 |
| CCN(CC)S(=O)(=O)c1ccc(Oc2ccc([N+](=O)[O-])cc2C#N)cc1 [Example 10, N,N-Diethyl-4-(2-cyano-4-nitrophenoxy)benzenesulfonamide] | > 100 µg/mL |  | < 6.25 µg/mL | ~50 µg/mL (≈ 133 µM) |  |  |  | X^2 (Continuous Oral Feeding, chi-square of deaths) (Coxsackie A21 virus): 2.84 |
| N#Cc1cc([N+](=O)[O-])ccc1Oc1ccc(C(=O)c2ccccc2)cc1 [Example 11, 2-(4-Benzoylphenoxy)-5-nitrobenzonitrile] | > 100 µg/mL | ~100 µg/mL (≈ 290 µM) | 12.5 µg/mL (≈ 36.3 µM) |  |  |  |  | X^2 (Single Oral Dose, chi-square of deaths vs virus control) (Cox A21): 0.64 |
| COc1cccc(Oc2ccc([N+](=O)[O-])cc2C#N)c1 [Example 13, 2-(3-Methoxyphenoxy)-5-nitrobenzonitrile] | > 50 µg/mL | ≤ 3.12 µg/mL | < 3.12 µg/mL | 6.25 µg/mL (≈ 23.1 µM) | 6.25 µg/mL (≈ 23.1 µM) | 3.12 µg/mL (≈ 11.6 µM) | 12.5 µg/mL (≈ 46.3 µM) |  |
| N#Cc1cc([N+](=O)[O-])ccc1Oc1ccc(C(F)(F)F)cc1 [Example 14, 2-((4-Trifluoromethyl)phenoxy)-5-nitrobenzonitrile] | ≥ 50 µg/mL | 0.312 µg/mL (≈ 1.01 µM) | 0.625 µg/mL (≈ 2.03 µM) | 3.12 µg/mL (≈ 10.1 µM) | 2.5 µg/mL (≈ 8.11 µM) | 0.312 µg/mL (≈ 1.01 µM) | 0.625 µg/mL (≈ 2.03 µM) |  |
| CC(=O)c1ccc(Oc2ccc([N+](=O)[O-])cc2C#N)cc1 [Example 15, 2-(4-Acetylphenoxy)-5-nitrobenzonitrile] | > 50 µg/mL | 3.12 µg/mL (≈ 11.1 µM) | < 3.12 µg/mL | 6.25 µg/mL (≈ 22.1 µM) | 6.25 µg/mL (≈ 22.1 µM) | 3.12 µg/mL (≈ 11.1 µM) | 6.25 µg/mL (≈ 22.1 µM) |  |
| Cc1cc(Cl)ccc1Oc1ccc([N+](=O)[O-])cc1C#N [Example 16, 2-(4-Chloro-2-methylphenoxy)-5-nitrobenzonitrile] | > 50 µg/mL | 3.12 µg/mL (≈ 10.8 µM) | 12.5 µg/mL (≈ 43.3 µM) | 12.5 µg/mL (≈ 43.3 µM) | 6.25 µg/mL (≈ 21.6 µM) | 3.12 µg/mL (≈ 10.8 µM) |  |  |
| N#Cc1cc([N+](=O)[O-])ccc1Oc1cc(Cl)c(Cl)c(Cl)c1 [Example 17, 2-(3,4,5-Trichlorophenoxy)-5-nitrobenzonitrile] | 10 µg/mL | 1.25 µg/mL (≈ 3.64 µM) | 1.25 µg/mL (≈ 3.64 µM) | 2.5 µg/mL (≈ 7.28 µM) |  |  |  |  |
| N#Cc1cc([N+](=O)[O-])ccc1Oc1c(F)c(F)cc(F)c1F [Example 18, 2-(2,3,5,6-Tetrafluorophenoxy)-5-nitrobenzonitrile] | 12.5 µg/mL | < 3.12 µg/mL | 3.12 µg/mL (≈ 10 µM) | 3.12 µg/mL (≈ 10 µM) | 1.25 µg/mL (≈ 4 µM) | 1.25 µg/mL (≈ 4 µM) | 0.312 µg/mL (≈ 1 µM) |  |
| N#Cc1cc([N+](=O)[O-])ccc1Oc1c(F)c(F)c(F)c(F)c1F [Example 19, 2-(2,3,4,5,6-Pentafluorophenoxy)-5-nitrobenzonitrile] | 12.5 µg/mL | ≤ 3.12 µg/mL | 6.25 µg/mL (≈ 18.9 µM) | 6.25 µg/mL (≈ 18.9 µM) | 1.25 µg/mL (≈ 3.79 µM) | 1.25 µg/mL (≈ 3.79 µM) | 0.312 µg/mL (≈ 0.946 µM) |  |
| N#Cc1cc([N+](=O)[O-])ccc1Sc1ccc(Cl)c(Cl)c1 [Example 20, 2-((3,4-Dichlorophenyl)thio)-5-nitrobenzonitrile] | 10 µg/mL | 2.5 µg/mL (≈ 7.69 µM) | ~2.5 µg/mL (≈ 7.69 µM) |  |  |  |  |  |
| N#Cc1cc([N+](=O)[O-])ccc1Oc1ccc(F)cc1 [Example 21, 2-(4-Fluorophenoxy)-5-nitrobenzonitrile] | 10 µg/mL | < 0.625 µg/mL | 0.625 µg/mL (≈ 2.42 µM) | 0.625 µg/mL (≈ 2.42 µM) | 1.25 µg/mL (≈ 4.84 µM) | 0.625 µg/mL (≈ 2.42 µM) | 0.625 µg/mL (≈ 2.42 µM) | X^2 (Continuous Oral Feeding, chi-square of deaths) (Coxsackie A21 virus): 10.513 |
| N#Cc1cc([N+](=O)[O-])ccc1Oc1cccc(Cl)c1Cl [Example 22, 2-(2,3-Dichlorophenoxy)-5-nitrobenzonitrile] | > 50 µg/mL | < 3.12 µg/mL | < 3.12 µg/mL | < 3.12 µg/mL |  |  | < 3.12 µg/mL |  |
| N#Cc1cc([N+](=O)[O-])ccc1Oc1cc(Cl)ccc1Cl [Example 23, 2-(2,5-Dichlorophenoxy)-5-nitrobenzonitrile] | > 50 µg/mL | < 3.12 µg/mL | 6.25 µg/mL (≈ 20.2 µM) | 3.12 µg/mL (≈ 10.1 µM) | ≤ 6.25 µg/mL | < 6.25 µg/mL | 3.12 µg/mL (≈ 10.1 µM) |  |
| N#Cc1cc([N+](=O)[O-])ccc1Oc1c(Cl)cccc1Cl [Example 24, 2-(2,6-Dichlorophenoxy)-5-nitrobenzonitrile] | > 50 µg/mL | ≤ 3.12 µg/mL | 12.5 µg/mL (≈ 40.4 µM) | 3.12 µg/mL (≈ 10.1 µM) | 3.12 µg/mL (≈ 10.1 µM) | ≤ 3.12 µg/mL | 3.12 µg/mL (≈ 10.1 µM) |  |
| N#Cc1cc([N+](=O)[O-])ccc1Oc1cc(Cl)cc(Cl)c1 [Example 25, 2-(3,5-Dichlorophenoxy)-5-nitrobenzonitrile] | > 50 µg/mL | 3.12 µg/mL (≈ 10.1 µM) |  | 6.25 µg/mL (≈ 20.2 µM) | 6.25 µg/mL (≈ 20.2 µM) | 3.12 µg/mL (≈ 10.1 µM) | 25 µg/mL (≈ 80.9 µM) |  |
| N#Cc1cc([N+](=O)[O-])ccc1Oc1ccccc1C(F)(F)F [Example 26, 2-((2-Trifluoromethyl)phenoxy)-5-nitrobenzonitrile] | ≥ 20 µg/mL | 1.25 µg/mL (≈ 4.06 µM) | 10 µg/mL (≈ 32.4 µM) |  |  |  |  |  |
| N#Cc1cc([N+](=O)[O-])ccc1Oc1cccc(C(F)(F)F)c1 [Example 27, 2-((3-Trifluoromethyl)phenoxy)-5-nitrobenzonitrile] | 12.5 µg/mL | 0.625 µg/mL (≈ 2.03 µM) | 1.25 µg/mL (≈ 4.06 µM) | 2.5 µg/mL (≈ 8.11 µM) | 0.625 µg/mL (≈ 2.03 µM) | 1.25 µg/mL (≈ 4.06 µM) | 0.625 µg/mL (≈ 2.03 µM) |  |
| N#Cc1cc([N+](=O)[O-])ccc1Oc1cc(C(F)(F)F)cc(C(F)(F)F)c1 [Example 28, 2-(3,5-bis(Trifluoromethyl)phenoxy)-5-nitrobenzonitrile] | ≥ 20 µg/mL | 2.5 µg/mL (≈ 6.65 µM) | 10 µg/mL (≈ 26.6 µM) |  |  |  |  |  |
| N#Cc1cc([N+](=O)[O-])ccc1Oc1ccc(Cl)c(Cl)c1Cl [Example 29, 2-(2,3,4-Trichlorophenoxy)-5-nitrobenzonitrile] | > 20 µg/mL | 1.25 µg/mL (≈ 3.64 µM) | ~5 µg/mL (≈ 14.6 µM) | ~10 µg/mL (≈ 29.1 µM) |  |  |  |  |
| N#Cc1cc([N+](=O)[O-])ccc1Oc1cc(Cl)cc(Cl)c1Cl [Example 30, 2-(2,3,5-Trichlorophenoxy)-5-nitrobenzonitrile] | > 20 µg/mL | 2.5 µg/mL (≈ 7.28 µM) |  | 2.5 µg/mL (≈ 7.28 µM) |  |  |  |  |
| N#Cc1cc([N+](=O)[O-])ccc1Oc1c(Cl)ccc(Cl)c1Cl [Example 31, 2-(2,3,6-Trichlorophenoxy)-5-nitrobenzonitrile] | > 20 µg/mL | 1.25 µg/mL (≈ 3.64 µM) | 5 µg/mL (≈ 14.6 µM) | 2.5 µg/mL (≈ 7.28 µM) | 3.12 µg/mL (≈ 9.1 µM) | < 3.12 µg/mL | 3.12 µg/mL (≈ 9.1 µM) |  |
